In general, IC50 refers to the concentration at which inhibition is half-maximal. As a reminder, the Cmax is the highest concentration seen after dosing. The term Tmax denotes the time from dosing to the highest level. By half-life is commonly meant the time needed for the level to fall by half in the phase considered. The low end stands for fast loss, the high end for slow loss.

The target in one data set is T1, rat GnRH receptor (Rattus norvegicus, UniProt P30969).
T1 sequence (P30969 1-327): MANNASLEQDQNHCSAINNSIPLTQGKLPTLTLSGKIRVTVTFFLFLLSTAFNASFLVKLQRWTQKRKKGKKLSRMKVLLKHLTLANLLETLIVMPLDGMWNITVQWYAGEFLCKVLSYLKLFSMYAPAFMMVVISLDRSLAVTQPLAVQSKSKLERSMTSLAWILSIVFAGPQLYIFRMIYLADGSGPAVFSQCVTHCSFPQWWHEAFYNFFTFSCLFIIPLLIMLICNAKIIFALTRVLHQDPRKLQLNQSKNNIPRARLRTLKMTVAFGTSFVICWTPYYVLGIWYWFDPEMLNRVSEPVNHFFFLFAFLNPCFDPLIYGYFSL
The data set is described as follows: Radioligand binding, 125I-GnRH-A, rat pituitary membranes. The note with it: read-out: rGnRH IC50. Also on record: membranes were prepared from rat pituitary; from tissue; host or cells: rat pituitary. The method, then:
All compounds were diluted in 1% DMSO (final assay concentration) in binding assay buffer. […] Reactions were terminated by rapid filtration onto 96-well Packard GF/C filters soaked in 0.1% polyethyleneimine. Filters were washed three times with PBS buffer, dried and counted on a Packard Topcount by liquid scintillation counting.
Assay conditions were identical for assessing compound activities at other species. […] IC50 values for control peptides and test compounds were calculated utilizing GraphPad Prism™ software.
The reaction mixture was vortexed and incubated for 1 min at room temperature. After one min, the mixture was vortexed and allowed to incubate for an additional minute. 2 ml of 0.5 M acetic acid/1% BSA was added to the reaction tube and the mixture was added to a C18 Sep-Pak cartridge. The cartridge was washed with subsequent washes of 5 ml H2O and 5 ml 0.5M acetic acid and then eluted with 5×1 ml of 60% CH3CN/40% 0.5M acetic acid. The eluate was diluted with 3× volume of HPLC buffer A (0.1% TFA in H2O) and loaded onto a C18 column. […] The radioactive fractions (750 ed/fraction) are collected into clean polypropylene tubes containing 100 μl of 10% BSA. Fractions were assessed for biological activity by radioligand binding.

Another data set concerns the target T2, human GnRH receptor (Homo sapiens, UniProt P30968).
T2 construct: expressed in transfected cells; host or cells: HEK 293 (hGnRH-R/293, from Dr. Stuart Sealfon)
T2 sequence (P30968 1-328): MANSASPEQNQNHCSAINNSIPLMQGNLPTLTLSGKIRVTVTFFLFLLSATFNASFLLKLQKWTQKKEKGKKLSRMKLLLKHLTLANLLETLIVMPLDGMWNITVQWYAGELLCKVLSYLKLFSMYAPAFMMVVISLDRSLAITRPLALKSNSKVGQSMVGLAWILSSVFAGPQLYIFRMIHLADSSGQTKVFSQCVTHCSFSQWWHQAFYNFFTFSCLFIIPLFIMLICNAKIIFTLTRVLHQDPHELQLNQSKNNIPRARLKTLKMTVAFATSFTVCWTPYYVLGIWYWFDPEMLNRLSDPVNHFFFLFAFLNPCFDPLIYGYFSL
The data set is described as follows: Radioligand binding, 125I-GnRH-A displacement, membranes of HEK 293 cells with human GnRH receptor. As to conditions: read-out: hGnRH IC50. In short, it runs like this:
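After filtration and PBS washes, bound radioactivity was counted by scintillation and IC50 derived. Identical conditions applied for non-human receptors.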

A further data set concerns the target T3, mouse GnRH receptor (Mus musculus, UniProt Q01776).
T3 construct: expressed in transfected cells; host or cells: 293 cells
T3 sequence (Q01776 1-327): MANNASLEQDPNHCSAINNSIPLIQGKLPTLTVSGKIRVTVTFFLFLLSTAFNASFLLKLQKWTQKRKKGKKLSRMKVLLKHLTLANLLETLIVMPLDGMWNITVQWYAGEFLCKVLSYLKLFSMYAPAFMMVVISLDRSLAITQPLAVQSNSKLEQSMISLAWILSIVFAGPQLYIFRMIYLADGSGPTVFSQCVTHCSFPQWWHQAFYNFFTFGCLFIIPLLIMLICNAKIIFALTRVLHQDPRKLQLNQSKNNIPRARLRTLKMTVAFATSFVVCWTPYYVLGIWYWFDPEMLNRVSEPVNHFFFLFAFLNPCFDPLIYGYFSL
The data set can be described thus: Radioligand binding, 125I-GnRH-A, 293 cells expressing mouse GnRH receptors. The note with it: for IC50: read-out: mGnRH IC50; for inhibition at 10 µM: read-out: % Inhib. @ 10 uM mGnRH. In short, it runs like this:
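Bound label captured on 0.1% polyethyleneimine-treated GF/C filters, washed three times with PBS, counted. IC50 derived; identical set-up for every species.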

Data set [1] is described as follows: Pharmacokinetic studies / bioavailability in rats. In kind it is in vivo, rat. As to conditions: rat female.
[2] abbreviates: female, rat, plasma, po, 10 mg/kg, p.o. 10 mg/kg, 5 mg/ml solution in 10% DMSO 10% cremophor 80% saline.

SMILES strings stand for the structures.

As for `Cc1cc2c(cc1Cc1ccc(C(N)=O)o1)C(C)(C)CCC2(C)C` [AXC- 06675], the half-inhibitory concentration (IC50) was 2800 nM on rat GnRH receptor and 2000 nM at human GnRH receptor. On to `Cc1cc2c(cc1Cc1ccc(C(=O)NCc3ccccc3-c3ccccc3)o1)C(C)(C)CCC2(C)C` [Compound 67], for which the IC50 on rat GnRH receptor was determined as 1160 nM.

With `Cc1cc2c(cc1Cc1ccc(C(=O)NCC3CCNCC3)o1)C(C)(C)CCC2(C)C` [Compound 76], the half-maximal inhibitory concentration (IC50) came out at 5300 nM at rat GnRH receptor and 880 nM on human GnRH receptor. In the case of `Cc1ccc(C)c(Cc2ccc(C(=O)NCc3cnc(C)cn3)o2)c1` [Compound 77], the IC50 at rat GnRH receptor was 8450 nM; at human GnRH receptor it was greater than 10000 nM.

As for `Cc1cc2c(cc1Cc1ccc(C(=O)Nc3cccnc3)o1)C(C)(C)CCC2(C)C` [Compound 78], at rat GnRH receptor, the half-inhibitory concentration (IC50) amounted to 1300 nM. Regarding `Cc1cc2c(cc1Cc1ccc(C(=O)NCc3ccc(-c4csnn4)cc3)o1)C(C)(C)CCC2(C)C` [Compound 79], the IC50 is 370 nM at rat GnRH receptor and 250 nM at human GnRH receptor.

With `Cc1cnc(CNC(=O)c2ccc(Cc3c(C)cc(C)c(Br)c3C)o2)cn1` [Compound 80], the IC50 at rat GnRH receptor turned out to be 5610 nM. Same read-out and setting: in the case of `Cc1cc(C)c(Cc2ccc(C(=O)NCc3cnc(C)cn3)o2)c(C)c1` [Compound 81] it was 8080 nM; in that of `Cc1cc2c(cc1Cc1ccc(C(=O)NC3CCNC3)o1)C(C)(C)CCC2(C)C` (stereo not shown) [Compound 82], 9200 nM.

In the case of `Cc1cc2c(cc1Cc1ccc(C(=O)NCCCN3CCOCC3)o1)C(C)(C)CCC2(C)C` [Compound 83], the 50% inhibitory concentration (IC50) at rat GnRH receptor was 1740 nM; on human GnRH receptor it was 620 nM. Turning to `COc1cc(C)c(Cc2ccc(C(=O)NCc3cnc(C)cn3)o2)cc1OC` [Compound 84], the IC50 at rat GnRH receptor stood at 770 nM; at human GnRH receptor, 8000 nM. As for `Cc1cc2c(cc1Cc1ccc(C(=O)NC[C@H]3CC[C@H](c4nc5ccccc5[nH]4)CC3)o1)C(C)(C)CCC2(C)C` [Compound 85], the IC50 on rat GnRH receptor was greater than 10000 nM. The same measure, in the same setting: the figure for `Cc1cc2c(cc1Cc1ccc(C(=O)NC3CCN(C(=O)OC(C)(C)C)C3)o1)C(C)(C)CCC2(C)C` (stereo not shown) [Compound 88] is 2340 nM; for `Cc1cc2c(cc1Cc1ccc(C(=O)N3CCC(Nc4ccnc(NCC5CCCO5)n4)C3)o1)C(C)(C)CCC2(C)C` (stereo not shown) [Compound 94.5] it is 4830 nM; for `Cc1cc2c(cc1Cc1ccc(C(=O)NCc3ccc(CNC(=O)C(F)(F)F)cc3)o1)C(C)(C)CCC2(C)C` [Compound 104] it is 1260 nM. On to `Cc1cc2c(cc1Cc1ccc(C(=O)Nc3ccc(C(N)=O)cc3)o1)C(C)(C)CCC2(C)C` [Compound 108], for which the IC50 at rat GnRH receptor came out at 2740 nM.

In the case of `Cc1cc2c(cc1Cc1ccc(C(=O)NC3CCC(NC(=O)C(F)(F)F)CC3)o1)C(C)(C)CCC2(C)C` (stereo not shown) [Compound 110], on rat GnRH receptor, the IC50 is greater than 10000 nM. The same measure, in the same setting: the figure for `Cc1cc2c(cc1Cc1ccc(C(=O)NC3CCC(N)CC3)o1)C(C)(C)CCC2(C)C` (stereo not shown) [Compound 112] is 7780 nM; for `Cc1cc(NS(=O)(=O)c2ccc(NC(=O)c3ccc(Cc4cc5c(cc4C)C(C)(C)CCC5(C)C)o3)cc2)no1` [Compound 114] it is 7000 nM; for `Cc1cc2c(cc1Cc1ccc(C(=O)NC[C@@H](O)c3ccccc3)o1)C(C)(C)CCC2(C)C` [Compound 124] it is 750 nM. `COc1ccc(CNC(=O)c2ccc(Cc3cc4c(cc3C)C(C)(C)CCC4(C)C)o2)c2ccccc12` [Compound 129]: at rat GnRH receptor, the IC50 amounted to 1390 nM. For the compound `COc1cc(OC)c(NC(=O)c2ccc(Cc3cc4c(cc3C)C(C)(C)CC4(C)C)o2)c(OC)c1` [Compound 300], the IC50 at mouse GnRH receptor was determined as 3.1 nM. Also, the IC50 on human GnRH receptor was found to be 3.2 nM. Besides, in data set [1] (setting [2]), the highest concentration (Cmax) was determined as 360 nM and the Tmax turned out to be 1 h. The compound further showed a half-life in data set [1] (female, rat, plasma) of 2.1 h. Also, the Fp.o. in data set [1] (5 mg/ml solution in 10% DMSO 10% cremophor 80% saline) was 10% (10 mg/kg)^10. Consider `COc1cc(NC(=O)c2ccc(Cc3cc4c(cc3C)C(C)(C)CCC4(C)C)o2)cc(OC)c1OC` [Compound 301], for which the half-maximal inhibitory concentration (IC50) on mouse GnRH receptor was determined as 38 nM; on human GnRH receptor it was 45 nM. With `Cc1cc2c(cc1Cc1ccc(C(=O)NCc3cccc(NC(=O)NC(Cc4ccccc4)c4ccccc4)c3)o1)C(C)(C)CCC2(C)C` (stereo not shown) [drawing 1570], the inhibition at 10 µM on mouse GnRH receptor amounted to 42%. Same read-out and setting: in the case of `Cc1cc2c(cc1Cc1ccc(C(=O)NCc3cccc(CNC(=O)C(Cc4ccccc4)c4ccccc4)c3)o1)C(C)(C)CCC2(C)C` (stereo not shown) [drawing 1571] it was 47%; in that of `C=C(C)CNC(=O)c1ccc(Cc2cc3c(cc2C)C(C)(C)CCC3(C)C)o1` [drawing 1573], 93%; in that of `Cc1cc2c(cc1Cc1ccc(C(=O)NCCc3ccc(F)cc3)o1)C(C)(C)CCC2(C)C` [drawing 1574], 79%. Turning to `COc1cc(OC)cc(N2CCN(C(=O)c3ccc(Cc4cc5c(cc4C)C(C)(C)CCC5(C)C)o3)CC2)c1` [drawing 1576], the inhibition at 10 µM on mouse GnRH receptor came out at 65%.

Regarding `Cc1cc2c(cc1Cc1ccc(C(=O)NC(C)(C)CC(C)(C)C)o1)C(C)(C)CCC2(C)C` [drawing 1577], the inhibition at 10 µM on mouse GnRH receptor is 66%. The same measure, in the same setting: the figure for `Cc1cc2c(cc1Cc1ccc(C(=O)N3CCC(NC(=O)C(F)(F)F)C3)o1)C(C)(C)CCC2(C)C` (stereo not shown) [drawing 1578] is 60%; for `CSCCC(CO)NC(=O)c1ccc(Cc2cc3c(cc2C)C(C)(C)CCC3(C)C)o1` (stereo not shown) [drawing 1580] it is 105%; for `CC[C@H](C)C(CO)NC(=O)c1ccc(Cc2cc3c(cc2C)C(C)(C)CCC3(C)C)o1` (stereo partly shown) [drawing 1581] it is 77%. In the case of `COc1cc2c(cc1OC)C(CC#N)N(C(=O)c1ccc(Cc3cc4c(cc3C)C(C)(C)CCC4(C)C)o1)CC2` (stereo not shown) [drawing 1582], the inhibition at 10 µM on mouse GnRH receptor came to 52%. Same read-out and setting: the figure for `Cc1cc2c(cc1Cc1ccc(C(=O)N(C)CCC3OCCO3)o1)C(C)(C)CCC2(C)C` [drawing 1583] is 96%. On the same count and under the same terms, in the case of `Cc1cc2c(cc1Cc1ccc(C(=O)NC(C)CN(C)C)o1)C(C)(C)CCC2(C)C` (stereo not shown) [drawing 1584] it was 92%. With `Cc1cc2c(cc1Cc1ccc(C(=O)NC(C)(C)CO)o1)C(C)(C)CCC2(C)C` [drawing 1585], the inhibition at 10 µM at mouse GnRH receptor was 90%.

With `CSCCCNC(=O)c1ccc(Cc2cc3c(cc2C)C(C)(C)CCC3(C)C)o1` [drawing 1586], the inhibition at 10 µM at mouse GnRH receptor was 99%. Still for that read-out and setting: in the case of `CSCCNC(=O)c1ccc(Cc2cc3c(cc2C)C(C)(C)CCC3(C)C)o1` [drawing 1587] it was 97%; in that of `CCSCCNC(=O)c1ccc(Cc2cc3c(cc2C)C(C)(C)CCC3(C)C)o1` [drawing 1588], 99%. The same measure, in the same setting: in the case of `COC(OC)C(C)NC(=O)c1ccc(Cc2cc3c(cc2C)C(C)(C)CCC3(C)C)o1` (stereo not shown) [drawing 1589] it was 97%; in that of `CCCOCCNC(=O)c1ccc(Cc2cc3c(cc2C)C(C)(C)CCC3(C)C)o1` [drawing 1590], 103%.

As for `Cc1cc2c(cc1Cc1ccc(C(=O)NCCC3OCCO3)o1)C(C)(C)CCC2(C)C` [drawing 1591], the inhibition at 10 µM on mouse GnRH receptor worked out at 104%. Same read-out and setting: the figure for `CCOC(=O)CCNC(=O)c1ccc(Cc2cc3c(cc2C)C(C)(C)CCC3(C)C)o1` [drawing 1592] is 99%.

The record behind these values is patent US7101878B1 (Agouron Pharmaceuticals, Inc., priority 1998, dated 2006).
